The values that follow are results of earlier work, collected in US20080299189A1, “CONTROLLED RELEASE DOPAMINE AGONIST COMPOSITIONS” (DRUGTECH CORPORATION, priority 2007, published 2008).

The structures appear in SMILES notation.

For data set [1] the following is noted: compared to placebo.

As to `CCCN[C@H]1CCc2nc(N)sc2C1` [pramipexole, (S)-2-amino-4,5,6,7-tetrahydro-6-(propylamino)benzothiazole], the half-life (in vivo) was 8.5 h. For the same compound, under “printed as a time”, the Cmax is 1 to 3 h. For the same compound, in data set [1], the “relative risk of hallucination” value is recorded as 5.2, the “relative risk of hypotension” value is 1.65 and the “relative risk of somnolence” value is on record as 2.01.
